From PubChem BioAssay (NCI)
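Here, GI50 denotes the concentration required for 50% inhibition of growth. TGI is the concentration that stops growth completely.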

How the values were obtained:
Experiment in all cases: NCI tumour cell line growth inhibition, 384-well format
[1] = system: BT-549 breast
[2] = system: RPMI-8226 leukemia
[3] = system: A549 NSCLC
[4] = system: T-47D breast
[5] = system: MALME-3M melanoma
[6] = system: SF-539 CNS
[7] = system: OVCAR-5 ovarian
[8] = system: 786-0 renal
[9] = system: TK-10 renal
[10] = system: NCI-H460 NSCLC
[11] = system: EKVX NSCLC
[12] = system: COLO 205 colon
[13] = system: SW-620 colon
[14] = system: MDA-MB-468 breast
[15] = system: M14 melanoma
[16] = system: SK-OV-3 ovarian
[17] = system: NCI-H522 lung
[18] = system: NCI/ADR-RES ovarian
[19] = system: KM12 colon
[20] = system: K-562 leukemia
[21] = system: RXF 393 renal
[22] = system: PC-3 prostate
[23] = system: NCI-H322M lung
[24] = system: HT29 colon
[25] = system: SK-MEL-28 melanoma
[26] = system: UACC-257 melanoma
[27] = system: HCC-2998 colon
[28] = system: SF-295 CNS
[29] = system: SNB-75 CNS
[30] = system: CCRF-CEM leukemia
[31] = system: NCI-H226 lung
[32] = system: ACHN renal
[33] = system: SN12C renal
[34] = system: HL-60(TB) leukemia
[35] = system: NCI-H23 lung
[36] = system: CAKI-1 renal
[37] = system: HS 578T breast
[38] = system: SF-268 CNS
[39] = system: HCT-15 colon
[40] = system: SK-MEL-5 melanoma
[41] = system: UACC-62 melanoma
[42] = system: MDA-MB-435 melanoma
[43] = system: U251 glioblastoma
[44] = system: IGROV1 ovarian
[45] = system: HOP-62 NSCLC
[46] = system: A498 renal
[47] = system: DU-145 prostate
[48] = system: SNB-19 CNS
[49] = system: OVCAR-4 ovarian
[50] = system: MCF7 breast
[51] = system: OVCAR-3 ovarian
[52] = system: LOX IMVI melanoma
[53] = system: OVCAR-8 ovarian
[54] = system: UO-31 renal

SMILES: CCS(=O)(=O)c1cccc(-c2cc(C(=O)NC3CCN(C)CC3)c(C)c3[nH]c4ncc(C)cc4c23)c1
- GI50 [1]: 144 nM
- TGI [1]: 326 nM
- GI50 [2]: 49.7 nM
- TGI [2]: 226 nM
- GI50 [3]: 58 nM
- TGI [3]: 1200 nM
- GI50 [4]: 59.2 nM
- TGI [4]: 270 nM
- GI50 [5]: 240 nM
- TGI [5]: 1460 nM
- GI50 [6]: 59 nM
- TGI [6]: 233 nM
- GI50 [7]: 185 nM
- TGI [7]: 827 nM
- GI50 [8]: 1000 nM
- TGI [8]: 2460 nM
- GI50 [9]: 1740 nM
- TGI [9]: 5.52 µM
- GI50 [10]: 36.2 nM
- TGI [10]: 1080 nM
- GI50 [11]: 270 nM
- TGI [11]: 1930 nM
- GI50 [12]: 18.3 nM
- TGI [12]: 98.1 nM
- GI50 [13]: 181 nM
- TGI [13]: 1250 nM
- GI50 [14]: 17.9 nM
- TGI [14]: 88.6 nM
- GI50 [15]: 437 nM
- TGI [15]: 2040 nM
- GI50 [16]: 135 nM
- TGI [16]: 869 nM
- GI50 [17]: 19.4 nM
- TGI [17]: 126 nM
- GI50 [18]: > 100 µM
- TGI [18]: > 100 µM
- GI50 [19]: 24.2 nM
- TGI [19]: 1110 nM
- GI50 [20]: 32.2 nM
- TGI [20]: 761 nM
- GI50 [21]: 112 nM
- TGI [21]: 384 nM
- GI50 [22]: 219 nM
- TGI [22]: 2710 nM
- GI50 [23]: 541 nM
- TGI [23]: 2440 nM
- GI50 [24]: 215 nM
- TGI [24]: 10.5 µM
- GI50 [25]: 279 nM
- TGI [25]: 1300 nM
- GI50 [26]: 139 nM
- TGI [26]: 935 nM
- GI50 [27]: 168 nM
- TGI [27]: 1240 nM
- GI50 [28]: 399 nM
- TGI [28]: 3.61 µM
- GI50 [29]: 101 nM
- TGI [29]: 226 nM
- TGI [30]: 12.1 nM
- GI50 [31]: 39.2 nM
- TGI [31]: 441 nM
- GI50 [32]: 2370 nM
- TGI [32]: 13.2 µM
- GI50 [33]: 51.5 nM
- TGI [33]: 267 nM
- GI50 [34]: 31.8 nM
- TGI [34]: 126 nM
- GI50 [35]: 66.9 nM
- TGI [35]: 343 nM
- GI50 [36]: 328 nM
- TGI [36]: 5.34 µM
- GI50 [37]: 58.1 nM
- TGI [37]: 216 nM
- GI50 [38]: 17.8 nM
- TGI [38]: 91.1 nM
- GI50 [39]: 3.96 µM
- TGI [39]: 19.8 µM
- GI50 [40]: 264 nM
- TGI [40]: 1680 nM
- GI50 [41]: 158 nM
- TGI [41]: 1120 nM
- GI50 [42]: 366 nM
- TGI [42]: 1900 nM
- GI50 [43]: 202 nM
- TGI [43]: 902 nM
- GI50 [44]: 40.8 nM
- TGI [44]: 230 nM
- GI50 [45]: 161 nM
- TGI [45]: 1290 nM
- GI50 [46]: 1400 nM
- TGI [46]: 5.5 µM
- GI50 [47]: 343 nM
- TGI [47]: 4.34 µM
- GI50 [48]: 192 nM
- TGI [48]: 1390 nM
- GI50 [49]: 953 nM
- TGI [49]: 5.04 µM
- GI50 [50]: 12.6 nM
- TGI [50]: 2130 nM
- GI50 [51]: 103 nM
- TGI [51]: 298 nM
- GI50 [52]: 84.9 nM
- TGI [52]: 229 nM
- GI50 [53]: 309 nM
- TGI [53]: 1490 nM
- GI50 [54]: 5.48 µM
- TGI [54]: 19.1 µM
